These results are taken from patent EP0838471A1, “PEPTIDE DERIVATIVES AND ANGIOTENSIN IV RECEPTOR AGONIST” (SAGAMI CHEMICAL RESEARCH CENTER, priority 1995, dated 1997).

Structures can show the parent of a compound that is named as a salt.

The target of this assay is T1, angiotensin IV receptor (Cavia porcellus, UniProt H0VNM7).
T1 sequence (H0VNM7 1-1025): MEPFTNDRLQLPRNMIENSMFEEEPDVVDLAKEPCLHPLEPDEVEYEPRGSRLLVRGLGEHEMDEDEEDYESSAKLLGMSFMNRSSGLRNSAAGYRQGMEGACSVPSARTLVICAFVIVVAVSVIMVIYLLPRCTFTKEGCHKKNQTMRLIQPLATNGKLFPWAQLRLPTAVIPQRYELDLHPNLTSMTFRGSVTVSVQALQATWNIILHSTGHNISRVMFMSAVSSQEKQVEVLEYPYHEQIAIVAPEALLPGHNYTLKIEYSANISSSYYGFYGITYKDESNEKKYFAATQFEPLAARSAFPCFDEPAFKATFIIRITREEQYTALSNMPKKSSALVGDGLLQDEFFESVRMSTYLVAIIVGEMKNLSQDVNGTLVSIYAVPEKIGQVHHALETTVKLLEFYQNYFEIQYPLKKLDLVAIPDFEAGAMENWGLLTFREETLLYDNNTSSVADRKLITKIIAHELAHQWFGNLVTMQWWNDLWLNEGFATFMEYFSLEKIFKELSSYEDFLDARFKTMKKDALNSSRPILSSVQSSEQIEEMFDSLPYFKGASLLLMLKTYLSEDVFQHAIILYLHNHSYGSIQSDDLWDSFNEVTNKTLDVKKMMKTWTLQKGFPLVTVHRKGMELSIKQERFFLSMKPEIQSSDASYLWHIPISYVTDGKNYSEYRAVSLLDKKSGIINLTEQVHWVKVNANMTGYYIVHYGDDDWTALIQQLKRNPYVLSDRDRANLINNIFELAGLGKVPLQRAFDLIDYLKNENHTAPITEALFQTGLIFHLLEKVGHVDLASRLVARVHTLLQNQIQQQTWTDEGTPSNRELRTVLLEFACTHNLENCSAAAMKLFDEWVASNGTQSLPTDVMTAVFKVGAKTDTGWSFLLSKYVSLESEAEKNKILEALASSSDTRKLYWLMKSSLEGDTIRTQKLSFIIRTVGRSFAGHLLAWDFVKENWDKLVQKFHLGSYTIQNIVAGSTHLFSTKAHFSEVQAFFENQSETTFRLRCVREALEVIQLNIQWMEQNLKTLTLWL
Kind of assay: Binding to angiotensin IV receptor (125I-angiotensin IV displacement, crude membrane specimen). The settings on record: Hartley guinea pig hippocampus membrane; 0.2 nM 125I-angiotensin IV; 37°C for 90 minutes; nonspecific bond with 1 µM angiotensin IV. The procedure: The capability of binding to angiotensin IV receptor was measured by using Hartley guinea pig hippocampus in accordance with the method reported by Miller-Wing et al., J. Pharmacol. Exp. Therp., 266:1718 (1993).
The Hartley guinea pig hippocampus was homogenized in a 50 mM Tris hydrochloride buffer solution (pH 7.4) containing 1 mM of ethylenediamine-N,N,N',N'-tetraacetic acid (EDTA) and 100 µm of phenylmethanesufonyl fluoride (PMSF). After centrifuging at 900 × g, the supernatant thus obtained was further centrifuged at 48,000 × g. The precipitate was washed once with the same buffer solution and then the precipitate was suspended in a 50 mM Tris hydrochloride buffer solution (pH 7.4) containing 150 mM of sodium chloride, 1 mM of EDTA, 100 µm of PMSF and 0.1% of bovine serum albumin (BSA) in such a manner as to give a protein concentration of 50 µg/ml to thereby give a crude membrane specimen.
This membrane specimen was allowed to react with 0.2 nM ^125I-angiotensin IV and a test compound dissolved in dimethyl sulfoxide at 37°C for 90 minutes. Then ^125I-angiotensin IV binding to the membrane was filtered under suction onto GF/B filer paper with the use of a cell harvester for laboratory use. The radioactivity on the filter paper was measured with a gamma-counter. The nonspecific bond was measured in the presence of 1 µM of angiotensin IV and the specific bond was calculated by subtracting the nonspecific bond from the total bond. The capability (IC50) of the test compound of binding to angiotensin IV receptor was determined as the concentration of the test compound capable of inhibiting the binding at an extent of 50% from the inhibition curve obtained by reacting 0.2 nM ^125I-angiotensin IV with the test compound at various concentrations.

A word on the IC50: it is the concentration that inhibits the measured activity by half. Regarding “N'-[N-(L-norleucyl)-N^im-benzyl-L-histidyl]-N-(2-phenylethyl)-L-leucinamide dihydrochloride [Example 33]”, the IC50 came out at 12.6 nM.
The same measure for `CC[C@H](C)[C@H](CCc1ccccc1)NC(=O)[C@H](Cc1ccc(O)cc1)NC(=O)[C@@H](N)C(C)C` [Example 59, (3S,4S)-N'-(L-valyl)-N-(4-methyl-1-phenylhexan-3-yl)-L-tyrosinamide hydrochloride]: 26.5 nM; for “L-valyl-L-tyrosyl-N-(4-pyridylmethyl)-L-isoleucinamide [Example 9]”: 5.99 nM; for `CCCC[C@H](N)C(=O)N[C@@H](Cc1ccc(O)cc1)C(=O)N[C@@H](CCc1ccc(C)cc1)[C@@H](C)CC` [Example 61, (3S,4S)-N'-(L-norleucyl)-N-[4-methyl-1-(4-methylphenyl)-1-hexan-3-yl]-L-tyrosinamide hydrochloride]: 24.2 nM.
The same measure for “N'-[N-[L-2-amino-3-(ethylthio)propionyl]-L-tyrosyl]-N-(2-phenylethyl)-L-leucinamide hydrochloride [Example 18]”: 0.4 nM.
